The assay deals with rats. As to the kind of experiment: Forced swim test (FST). The assay is classed as in vivo, male Wistar rats. The note with it: rat; for effect on immobility in FST / Immobility time: acute 1 mg/kg i.p.; for Immobility time: 60 min before test, 5 min session, vehicle 255.9 ± 8.6. The protocol:
The rats were injected for 21 consecutive days at a dose of 1 mg/kg, similar to the dose used in acute treatment, as per data presented in Supplementary Materials (Table S1). The FST was conducted according to the method of Porsolt. On the first day of the experiment, the animals were gently placed individually for 15 min in Plexiglas cylinders (40 cm high, 18 cm in diameter) containing 15 cm of water maintained at 23–25 °C. On removal from water, the rats were placed for 30 min in a Plexiglas box under a 60 W bulb to dry. On the following day (24 h later), the rats were replaced in the cylinder and the total duration of immobility was recorded during the whole 5 min test period. Immobility was assigned when no additional activity was observed other than that necessary to keep the rat’s head above the water. Fresh water was used for each animal.
FST after acute administration of the investigated compounds
Rats were injected 60 min before the test at a dose of 1 mg/kg. FST was carried out according to the method of Porsolt, and the same procedure was used for chronic treatment.
Table S1. Effect of acute treatment of PQA-AZ4, PQA-AZ6, and PQ-10 on the immobility time in the […]
Compound (mg/kg) Immobility time (s)
Compounds were injected i.p. 60 min before the test. Values represent the means ± SEM of immobility in the FST during a 5 min test session. The data were analyzed using one -way ANOVA, followed by Bonferroni‘s post hoc test; NS = nonsignificant; N=7-8.

Where [1] appears, read: chronic 1 mg/kg/day i.p., 21 days.

Structures are written as SMILES.

Regarding `COc1cccc(N2CCN(CC3CCN(c4ncnc5cc(OC)c(OC)cc45)C3)CC2)c1` (stereo not shown) [PQA-AZ4, 6,7-Dimethoxy-4-(3-((4-(3-methoxyphenyl)piperazin-1-yl)methyl)pyrrolidin-1-yl)quinazoline], the “effect on immobility in FST” value is listed as “did not change the immobility” and the Immobility time is 244.8 ± 8.9 s. In addition, the “antidepressant-like activity in FST” value under setting [1] is “inactive”.

Regarding `COc1cc2ncnc(N3CCC(CN4CCN(c5ccc(Cl)cc5)CC4)C3)c2cc1OC` (stereo not shown) [PQA-AZ6, 4-(3-((4-(4-Chlorophenyl)piperazin-1-yl)methyl)pyrrolidin-1-yl)-6,7-dimethoxyquinazoline], the “effect on immobility in FST” value is recorded as “did not change the immobility” and the Immobility time was found to be 255.4 ± 7.0 s. Moreover, under setting [1], the “antidepressant-like activity in FST” value is listed as “showed antidepressant-like properties” and the “decrease of immobility vs. control group in FST” value was “about 11%”.

These data come from article PMC9569954, “The Antidepressant-like Activity, Effects on Recognition Memory Deficits, Bioavailability, and Safety after Chronic Administration of New Dual-Acting Small Compounds Targeting Neuropsychiatric Symptoms in Dementia” (International Journal of Molecular Sciences, 2022).
